Assays:
[1] = target: T1, [Pyruvate dehydrogenase (acetyl-transferring)] kinase isozyme 2, mitochondrial (Homo sapiens, UniProt Q15119); assay: PDK Inhibition Assay; settings: pH 7.5; 25 °C
[2] = target: [Pyruvate dehydrogenase (acetyl-transferring)] kinase isozyme 4, mitochondrial (Homo sapiens, UniProt Q16654); assay: PDK Inhibition Assay; settings: pH 7.5; 25 °C
[3] = target: T2, Heat shock protein HSP 90-alpha [1-236] (Homo sapiens, UniProt P07900); assay: Isothermal Titration Calorimetry (ITC); settings: pH 7.5; 15 °C
T2 construct: 1-236
Experimental: (§1) The PDK2 or Hsp90 N-terminal domain protein was dialyzed against 1 liter of thedialysis buffer containing 50 mM Tris-Cl, pH 7.5, 50 mM KCl, 1 mM MgCl2, and 0.5 mM β-mercaptoethanol.

[4] = target: T1, [Pyruvate dehydrogenase (acetyl-transferring)] kinase isozyme 2, mitochondrial; assay: Isothermal Titration Calorimetry (ITC); settings: pH 7.5; 15 °C
Experimental: as §1

Sequence of [Pyruvate dehydrogenase (acetyl-transferring)] kinase isozyme 4, mitochondrial (Q16654 whole entry): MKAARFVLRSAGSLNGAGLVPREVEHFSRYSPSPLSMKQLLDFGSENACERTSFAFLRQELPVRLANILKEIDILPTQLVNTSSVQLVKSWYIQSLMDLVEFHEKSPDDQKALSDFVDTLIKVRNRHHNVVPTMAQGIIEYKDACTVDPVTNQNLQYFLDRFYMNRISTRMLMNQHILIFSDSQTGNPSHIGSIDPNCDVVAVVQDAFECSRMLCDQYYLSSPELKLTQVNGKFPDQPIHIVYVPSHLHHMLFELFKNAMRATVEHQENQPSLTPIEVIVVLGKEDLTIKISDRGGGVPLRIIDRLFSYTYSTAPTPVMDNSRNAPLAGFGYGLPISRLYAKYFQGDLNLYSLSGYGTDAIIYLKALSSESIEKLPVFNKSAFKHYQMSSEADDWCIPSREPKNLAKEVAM

SMILES	IC50 [1] [µM]	IC50 [2] [µM]	Kd [3] [µM]	Kd [4] [µM]
O=C(O)C(Cl)Cl [DCA]	183	80	–	–
Oc1ccc(-c2nnc(S)n2-c2cccc3ccccc23)c(O)c1 [Resorcinol analog, 1]	3.82	0.28	0.025	6.76

Reference: BindingDB's records for doi:10.1074/jbc.M113.533885 (University of Texas Southwestern Medical Center, 2014)
